Laboratory results published in the ASAP Discovery antiviral challenge data (2025).
≈ marks a conversion by molar mass, not a printed value. Where “and” joins values, the source holds several entries; their conditions need not be identical. Equal values may be shown once.

Experiments:
[1] = mouse; liver_microsomes
[2] = mdck_mdr1
[3] = not given; remark: listed apart in the source
[4] = human; liver_microsomes

COCCNC(=O)c1c[nH]c2ncnc(N[C@H](c3ccc4c(c3)S(=O)(=O)CCC4)C(C)C)c12 (racemic)
microsomal CLint [1]: 888 µL/min/mg | logD: 2.8 | Papp [2]: 1.62 ×10⁻⁶ cm/s | solubility kinetic [3]: 378 µM (≈ 178 µg/mL) | microsomal CLint [4]: 540 µL/min/mg

CC(C)[C@H](Nc1ncnc2[nH]cc(C(=O)NC3CC3)c12)c1ccc2c(c1)S(=O)(=O)CCC2 (racemic)
microsomal CLint [1]: 234 µL/min/mg | logD: 3.1 | Papp [2]: 2.46 ×10⁻⁶ cm/s | solubility kinetic [3]: 257 µM (≈ 117 µg/mL) | microsomal CLint [4]: 29 µL/min/mg

Cc1nn(C)cc1-c1cc2c(N[C@H](c3ccc4c(c3)S(=O)(=O)CCC4)C(C)C)ncnc2[nH]1 (single isomer, unassigned)
microsomal CLint [1]: 202 µL/min/mg and 390 µL/min/mg | logD: 3.1 and 3.4 | Papp [2]: 4.36 ×10⁻⁶ cm/s and 3.69 ×10⁻⁶ cm/s | solubility kinetic [3]: 65 µM and 63 µM | microsomal CLint [4]: 273 µL/min/mg and 251 µL/min/mg

COc1ccc(C(=O)Nc2cccc(/C=C3/C(=O)NC(=O)c4ccccc43)c2)cc1
microsomal CLint [1]: 127 µL/min/mg | logD: 3.6 | Papp [2]: 2.33 ×10⁻⁶ cm/s | solubility kinetic [3]: 23 µM (≈ 9.16 µg/mL) | microsomal CLint [4]: 180 µL/min/mg

CC(C)[C@H](Nc1ncnc2[nH]c(-c3cnn(C)c3C#N)cc12)c1ccc2c(n1)OCCO2 (racemic)
microsomal CLint [1]: 139 µL/min/mg | logD: 3.4 | Papp [2]: 12.8 ×10⁻⁶ cm/s | solubility kinetic [3]: 89 µM (≈ 38.3 µg/mL) | microsomal CLint [4]: 56 µL/min/mg

CC(C)[C@H](Nc1ncnc2[nH]c(-c3cnn(CC(N)=O)c3)cc12)c1ccc2c(c1)S(=O)(=O)CCC2 (racemic)
microsomal CLint [1]: 61 µL/min/mg | logD: 1.9 | Papp [2]: 0.32 ×10⁻⁶ cm/s | solubility kinetic [3]: 341 µM (≈ 168 µg/mL) | microsomal CLint [4]: 116 µL/min/mg

CNC(=O)c1c[nH]c2ncnc(N[C@H](c3ccc4c(c3)OCCO4)C(C)C)c12 (racemic)
microsomal CLint [1]: 88 µL/min/mg | logD: 3.6 | Papp [2]: 16.2 ×10⁻⁶ cm/s | solubility kinetic [3]: 319 µM (≈ 122 µg/mL) | microsomal CLint [4]: 79 µL/min/mg

COCCNC(=O)[C@H](Nc1ccc2c(c1)CNC2)c1cc(Cl)cc(C2CC2)c1 (single isomer, unassigned)
microsomal CLint [1]: 11.7 µL/min/mg | logD: 1 | Papp [2]: 1.4 ×10⁻⁶ cm/s | solubility kinetic [3]: 320 µM (≈ 128 µg/mL) | microsomal CLint [4]: 19.7 µL/min/mg

CNC(=O)c1c[nH]c2ncnc(N[C@H](c3ccc4c(c3)S(=O)(=O)CCC4)C(C)C)c12 (racemic)
microsomal CLint [1]: 192 µL/min/mg | logD: 2.5 | Papp [2]: 2.23 ×10⁻⁶ cm/s | solubility kinetic [3]: 390 µM (≈ 167 µg/mL) | microsomal CLint [4]: 131 µL/min/mg

O=C(Nc1ccccc1)Nc1ccc(C(=O)NC2c3cccc(O)c3CC2C(=O)O)cc1 (stereo not given)
microsomal CLint [1]: 2 µL/min/mg | logD: 0.12 | Papp [2]: 0.7 ×10⁻⁶ cm/s | solubility kinetic [3]: 319 µM (≈ 138 µg/mL) | microsomal CLint [4]: 9 µL/min/mg

CC(C)[C@H](Nc1ncnc2[nH]c(-c3cnn(CC(N)=O)c3)cc12)c1ccc2c(n1)OCCO2 (single isomer, unassigned)
microsomal CLint [1]: 5 µL/min/mg and 9 µL/min/mg | logD: 2.3 and 2.4 | Papp [2]: 1.27 ×10⁻⁶ cm/s and 0.47 ×10⁻⁶ cm/s | solubility kinetic [3]: 377 µM and 395 µM | microsomal CLint [4]: 12 µL/min/mg and 18 µL/min/mg

CC(C)(C)[C@H](Nc1ncnc2[nH]c(-c3cnn(CC(N)=O)c3)cc12)c1ccc2c(c1)OCCO2 (racemic)
microsomal CLint [1]: 47 µL/min/mg | logD: 3.2 | Papp [2]: 1.66 ×10⁻⁶ cm/s | solubility kinetic [3]: 195 µM (≈ 90 µg/mL) | microsomal CLint [4]: 133 µL/min/mg

CNC(=O)Cn1cc(-c2cc3c(N[C@H](c4ccc5c(c4)S(=O)(=O)CCC5)C(C)C)ncnc3[nH]2)cn1 (single isomer, unassigned)
microsomal CLint [1]: 111 µL/min/mg and 44 µL/min/mg | logD: 2.4 and 2.3 | Papp [2]: 0.396 ×10⁻⁶ cm/s and 0.916 ×10⁻⁶ cm/s | solubility kinetic [3]: 323 µM and 294 µM | microsomal CLint [4]: 92 µL/min/mg and 237 µL/min/mg

Cc1cc(CCCOc2c(C)cc(-c3noc(C(F)(F)F)n3)cc2C)on1
microsomal CLint [1]: 21.5 µL/min/mg | logD: 4.2 | Papp [2]: 1.42 ×10⁻⁶ cm/s | solubility kinetic [3]: 18 µM (≈ 6.86 µg/mL) | microsomal CLint [4]: 11.6 µL/min/mg

CNCc1cc(-c2cc3c(N[C@H](c4ccc5c(c4)S(=O)(=O)CCC5)C(C)C)ncnc3[nH]2)co1 (racemic)
microsomal CLint [1]: 52 µL/min/mg | logD: 2.1 | Papp [2]: 1.61 ×10⁻⁶ cm/s | solubility kinetic [3]: 321 µM (≈ 154 µg/mL) | microsomal CLint [4]: 57 µL/min/mg

Cn1ncc(-c2cc3c(N[C@H](c4ccc5c(c4)OCCO5)C(C)(C)C)ncnc3[nH]2)c1C#N (racemic)
microsomal CLint [1]: 199 µL/min/mg | logD: 2.9 | Papp [2]: 2.79 ×10⁻⁶ cm/s | solubility kinetic [3]: 25 µM (≈ 11.1 µg/mL) | microsomal CLint [4]: 85 µL/min/mg

CC(C)[C@H](Nc1ncnc2[nH]c(-c3cnn(CC(=O)N(C)C)c3)cc12)c1ccc2c(c1)S(=O)(=O)CCC2 (racemic)
microsomal CLint [1]: 68 µL/min/mg | logD: 2.1 | Papp [2]: 0.67 ×10⁻⁶ cm/s | solubility kinetic [3]: 38 µM (≈ 19.8 µg/mL) | microsomal CLint [4]: 106 µL/min/mg

CC(C)[C@H](Nc1ncnc2[nH]c(-c3cncc(S(C)(=O)=O)c3)cc12)c1ccc2c(c1)S(=O)(=O)CCC2 (racemic)
microsomal CLint [1]: 272 µL/min/mg | logD: 3.1 | Papp [2]: 0.491 ×10⁻⁶ cm/s | solubility kinetic [3]: 31 µM (≈ 16.3 µg/mL) | microsomal CLint [4]: 635 µL/min/mg

C[C@H](C(=O)O)[C@@H](NC(=O)c1ncnc2[nH]ccc12)c1ccc(Br)cc1 (single isomer, unassigned)
microsomal CLint [1]: 4 µL/min/mg | logD: 0.6 | Papp [2]: 0.682 ×10⁻⁶ cm/s | solubility kinetic [3]: 358 µM (≈ 144 µg/mL) | microsomal CLint [4]: 3 µL/min/mg

CC(C)[C@H](Nc1ncnc2[nH]cc(C(N)=O)c12)c1ccc2c(c1)OCCO2 (racemic)
microsomal CLint [1]: 142 µL/min/mg | logD: 3.2 | Papp [2]: 11.1 ×10⁻⁶ cm/s | solubility kinetic [3]: 375 µM (≈ 138 µg/mL) | microsomal CLint [4]: 143 µL/min/mg
